Reference: patent US20190117670A1, “LONGER-ACTING PROGESTIN PRODRUG CONTRACEPTIVES” (Evestra, Inc., priority 2017, published 2019)

Tested on: not given
Assay: not given
Conditions: cited from earlier work

Question: Which “contraceptive effect in the clinic” value does the source give for C#C[C@]1(OC(=O)CCC)CCC2C3CCC4=CC(=O)CCC4C3CC[C@@]21CC (some centres unmarked) [EC600 LB, Levonorgestrel butanoate, reference compound] here?
Answer: Its value is “failed in the clinic to reach a contraceptive effect for up to 6 month”.

Tested on: cycling rats of Sprague-Dawley strain
Assay: Estrous suppression assay (long term injectable contraceptive), anti-ovulatory activity in female rat model
Assay type: in vivo
Conditions: 2 mg/rat, single s.c. injection of milled suspension, adult female rats, vaginal smear until cycling re-established
Experimental: A stainless steel grinding bowl with a lid and seal along with three 10 mm stainless steel balls were used to formulate suspensions for injection. The compounds were weighed and added to the grinding bowl and steel balls. 1.5 mL of formulation vehicle was added to the grinding bowl, via pipette. The milling conditions used as listed: 20 minutes, 20 Hz. After milling, the suspension was transferred to a volumetric flask. Formulation vehicle was used to dilute the milled suspension to produce the desired injection dose.
Protocol: Testing Long Term Injectable Contraceptive
Adult female rats (180-200 g body weight) were used for the study (adapted over 1 week before starting the study).
For each compound, two doses were tested (2 and 4 mg/rat).
Long acting properties of each preparation had been determined in an estrous suppression assay using virgin, mature (180-200 g) cycling rats of Sprague-Dawley strain. Upon receipt the animals were smeared daily (procedure described as below) for cyclicity and those who were showing two consecutive cycles were used for the study. Each animal was injected subcutaneously (s.c) with 0.5 ml of the test preparation (in the vehicle as described above) on the same day regardless of the stage of the cycle. Each compound was initially tested in 6 rats. Everyday excluding weekend, smears were taken starting on the day after injection and continued until such time that cornification of vaginal epithelium was observed and cycling was re-established (Bialy G, Blye R P, Enever R P, Naqvi R H, Lindberg M C. Long-acting contraceptive agents: structure activity relationships in a series of norethisterone and levonorgestrel esters. Steroids 1983, v 41, p 361).
Epithelium and lamina propria of the vagina undergo characteristic changes during the cycle. This cyclical changes was used in rodents to stage cycle diagnosis (1). During the cycle, it comes to a complete replacement of the epithelium. In order to determine the stage of the cycle, vaginal solution/mucus was collected as follows. The rat was fixed with one hand. With the other hand, a small moistened cotton swab (2-3 mm diameter) was inserted into the vagina and removed by gently rotating cell material. This was done with caution, since excessive irritation could induce a pseudopregnancy stage in animals. A drop of water on a slide was applied and dabbed the cotton swab in it. The smear was assessed under the microscope (Nikon Eclipse Ti, Magnification: 10×0.25) (Nelson J F, Felicio L S, Randall P K, Sims C, Finch C E. A longitudinal study of estrous cyclicity in aging C57BL/6J mice: I. Cycle frequency, length and vaginal cytology. Biol Reprod. 1982 September; 27(2):327-39).
The smear of diestrous is characterized by some neutrophils and a few small degenerated, irregularly shaped epithelial cells.
The microscopic image of the smear contains a moderate number of epithelial cells with large nuclei, which are usually visible as cell clusters.
The lamina propria leukocytes migrate into the epithelium. The smear is characterized by many big horny epithelial cells.
In metestrous stage, masses of polymorphonuclear cells with some cornified epithelial cells in the smear will become visible.

Question: Which “Rat Anti-ovulatory Activity Days +/− 2” value does the source give for C[C@H](O)C(=O)[C@@]1(C)CCC2C3CCC4=CC(=O)CCC4=C3CC[C@@]21C (some centres unmarked) [EC213 TMG, reference compound] here?
Answer: Its value is 19 days.

Question: Which “Rat Anti-ovulatory Activity Days +/− 2” value does the source give for C#C[C@]1(OC(=O)CCC)CCC2C3CCC4=CC(=O)CCC4C3CC[C@@]21CC (some centres unmarked) [EC600 LB, Levonorgestrel butanoate, reference compound] here?
Answer: Its value is 33 days.

Question: Which “Rat Anti-ovulatory Activity Days +/− 2” value does the source give for C#C[C@]1(OC(=O)COc2cccc(S(N)(=O)=O)c2)CCC2C3CCC4=CC(=O)CCC4C3CC[C@@]21CC (some centres unmarked) [EC601] here?
Answer: The value was 10 days.

Question: Which “Rat Anti-ovulatory Activity Days +/− 2” value does the source give for C#C[C@]1(OC(=O)COc2ccc(S(N)(=O)=O)cc2)CCC2C3CCC4=CC(=O)CCC4C3CC[C@@]21CC (some centres unmarked) [EC624] here?
Answer: The value was 20.5 days.

Question: For C#C[C@]1(OC(=O)COc2ccccc2)CCC2C3CCC4=CC(=O)CCC4C3CC[C@@]21CC (some centres unmarked) [EC625], which “Rat Anti-ovulatory Activity Days +/− 2” value is on record?
Answer: Its value is 43 days.

Question: For C#C[C@]1(OC(=O)COc2ccc(Cl)cc2)CCC2C3CCC4=CC(=O)CCC4C3CC[C@@]21CC (some centres unmarked) [EC631], which “Rat Anti-ovulatory Activity Days +/− 2” value is on record?
Answer: Its value is 33.5 days.

Question: With C#C[C@]1(OC(=O)COc2ccccc2C)CCC2C3CCC4=CC(=O)CCC4C3CC[C@@]21CC (some centres unmarked) [EC632] as the molecule, how does the “Rat Anti-ovulatory Activity Days +/− 2” value read?
Answer: The value was 8.5 days.

Question: Which “Rat Anti-ovulatory Activity Days +/− 2” value does the source give for C#C[C@]1(OC(=O)COc2ccccc2Cl)CCC2C3CCC4=CC(=O)CCC4C3CC[C@@]21CC (some centres unmarked) [EC633] here?
Answer: The value was 16.3 days.

Question: Which “Rat Anti-ovulatory Activity Days +/− 2” value does the source give for C#C[C@]1(OC(=O)COc2ccc(OC)cc2)CCC2C3CCC4=CC(=O)CCC4C3CC[C@@]21CC (some centres unmarked) [EC634] here?
Answer: The value was 30 days.

Question: For C#C[C@]1(OC(=O)COc2ccccc2OC)CCC2C3CCC4=CC(=O)CCC4C3CC[C@@]21CC (some centres unmarked) [EC635], which “Rat Anti-ovulatory Activity Days +/− 2” value is on record?
Answer: Its value is 13 days.

Question: With C#C[C@]1(OC(=O)COc2cccc(OC)c2)CCC2C3CCC4=CC(=O)CCC4C3CC[C@@]21CC (some centres unmarked) [EC636] as the molecule, how does the “Rat Anti-ovulatory Activity Days +/− 2” value read?
Answer: The value was 13 days.

Question: Which “Rat Anti-ovulatory Activity Days +/− 2” value does the source give for C#C[C@]1(OC(=O)[C@H](C)Oc2ccccc2)CCC2C3CCC4=CC(=O)CCC4C3CC[C@@]21CC (some centres unmarked) [EC638] here?
Answer: Its value is 8 days.

Question: Which “Rat Anti-ovulatory Activity Days +/− 2” value does the source give for C#C[C@]1(OC(=O)COc2cccc(F)c2)CCC2C3CCC4=CC(=O)CCC4C3CC[C@@]21CC (some centres unmarked) [EC639] here?
Answer: The value was 31 days.

Question: For C#C[C@]1(OC(=O)COc2ccc(F)cc2)CCC2C3CCC4=CC(=O)CCC4C3CC[C@@]21CC (some centres unmarked) [EC640], which “Rat Anti-ovulatory Activity Days +/− 2” value is on record?
Answer: Its value is 31 days.

Question: With C#C[C@]1(OC(=O)COc2cccnc2)CCC2C3CCC4=CC(=O)CCC4C3CC[C@@]21CC (some centres unmarked) [EC641] as the molecule, how does the “Rat Anti-ovulatory Activity Days +/− 2” value read?
Answer: Its value is 23 days.

Question: Which “Rat Anti-ovulatory Activity Days +/− 2” value does the source give for C#C[C@]1(OC(=O)COc2ccccc2F)CCC2C3CCC4=CC(=O)CCC4C3CC[C@@]21CC (some centres unmarked) [EC642] here?
Answer: Its value is 41 days.

Question: With C#C[C@]1(OC(=O)CCc2ccccc2OC)CCC2C3CCC4=CC(=O)CCC4C3CC[C@@]21CC (some centres unmarked) [EC643] as the molecule, how does the “Rat Anti-ovulatory Activity Days +/− 2” value read?
Answer: The value was 3 days.

Question: For C#C[C@]1(OC(=O)COc2ccc3c(c2)OCO3)CCC2C3CCC4=CC(=O)CCC4C3CC[C@@]21CC (some centres unmarked) [EC644], which “Rat Anti-ovulatory Activity Days +/− 2” value is on record?
Answer: Its value is 20 days.

Question: With C#C[C@]1(OC(=O)COc2ccc(S(C)(=O)=O)cc2)CCC2C3CCC4=CC(=O)CCC4C3CC[C@@]21CC (some centres unmarked) [EC645] as the molecule, how does the “Rat Anti-ovulatory Activity Days +/− 2” value read?
Answer: Its value is 31 days.

Question: Which “Rat Anti-ovulatory Activity Days +/− 2” value does the source give for C#C[C@]1(OC(=O)CNc2ccccc2)CCC2C3CCC4=CC(=O)CCC4C3CC[C@@]21CC (some centres unmarked) [EC646] here?
Answer: Its value is 13 days.

Question: With C#C[C@]1(OC(=O)CSc2ccccc2)CCC2C3CCC4=CC(=O)CCC4C3CC[C@@]21CC (some centres unmarked) [EC647] as the molecule, how does the “Rat Anti-ovulatory Activity Days +/− 2” value read?
Answer: The value was 20 days.

Question: Which “Rat Anti-ovulatory Activity Days +/− 2” value does the source give for C#C[C@]1(OC(=O)COc2ccc(S(N)(=O)=O)cc2Cl)CCC2C3CCC4=CC(=O)CCC4C3CC[C@@]21CC (some centres unmarked) [EC648] here?
Answer: Its value is 18 days.

Question: For C#C[C@]1(OC(=O)COc2ccc(S(N)(=O)=O)cc2C)CCC2C3CCC4=CC(=O)CCC4C3CC[C@@]21CC (some centres unmarked) [EC649], which “Rat Anti-ovulatory Activity Days +/− 2” value is on record?
Answer: The value was 18.5 days.

Question: Which “Rat Anti-ovulatory Activity Days +/− 2” value does the source give for C#C[C@]1(OC(=O)COc2ccc(S(N)(=O)=O)c(Cl)c2)CCC2C3CCC4=CC(=O)CCC4C3CC[C@@]21CC (some centres unmarked) [EC650] here?
Answer: Its value is 18.5 days.

Question: Which “Rat Anti-ovulatory Activity Days +/− 2” value does the source give for C#C[C@]1(OC(=O)COc2ccccc2)CCC2C3CCC4=CC(=O)CCC4C3C(=C)C[C@@]21CC (some centres unmarked) [EC651] here?
Answer: Its value is 52 days.

Question: Which “Rat Anti-ovulatory Activity Days +/− 2” value does the source give for C#C[C@]1(OC(=O)COc2cc(C)on2)CCC2C3CCC4=CC(=O)CCC4C3CC[C@@]21CC (some centres unmarked) [EC652] here?
Answer: The value was 27 days.

Question: With C#C[C@]1(OC(=O)COc2ccc(S(N)(=O)=O)c(F)c2)CCC2C3CCC4=CC(=O)CCC4C3CC[C@@]21CC (some centres unmarked) [EC653] as the molecule, how does the “Rat Anti-ovulatory Activity Days +/− 2” value read?
Answer: Its value is 15 days.

Question: For C#C[C@]1(OC(=O)COc2cccc(-c3ccccc3)c2)CCC2C3CCC4=CC(=O)CCC4C3CC[C@@]21CC (some centres unmarked) [EC654], which “Rat Anti-ovulatory Activity Days +/− 2” value is on record?
Answer: The value was 8 days.

Question: Which “Rat Anti-ovulatory Activity Days +/− 2” value does the source give for C#C[C@]1(OC(=O)COc2ccc(-c3ccccc3)cc2)CCC2C3CCC4=CC(=O)CCC4C3CC[C@@]21CC (some centres unmarked) [EC655] here?
Answer: The value was 37 days.

Question: Which “Rat Anti-ovulatory Activity Days +/− 2” value does the source give for C#C[C@]1(OC(=O)COc2ccc(C#N)cc2)CCC2C3CCC4=CC(=O)CCC4C3CC[C@@]21CC (some centres unmarked) [EC658] here?
Answer: The value was 29 days.

Question: Which “Rat Anti-ovulatory Activity Days +/− 2” value does the source give for CC(=O)O[C@]1(C(C)=O)CC[C@H]2[C@@H]3C[C@H](C)C4=CC(=O)CC[C@]4(C)[C@H]3CC[C@@]21C [MPA, medroxyprogesterone acetate, reference compound] here?
Answer: The value was 22 days.

Same assay, conditions: 4 mg/rat, single s.c. injection of milled suspension, adult female rats, vaginal smear until cycling re-established

Question: With C#C[C@]1(OC(=O)COc2cccc(S(N)(=O)=O)c2)CCC2C3CCC4=CC(=O)CCC4C3CC[C@@]21CC (some centres unmarked) [EC601] as the molecule, how does the “Rat Anti-ovulatory Activity Days +/− 2” value read?
Answer: The value was 34 days.

Question: For C#C[C@]1(OC(=O)COc2ccccc2)CCC2C3CCC4=CC(=O)CCC4C3CC[C@@]21CC (some centres unmarked) [EC625], which “Rat Anti-ovulatory Activity Days +/− 2” value is on record?
Answer: The value was 69 days.

Question: For C#C[C@]1(OC(=O)CCc2ccccc2)CCC2C3CCC4=CC(=O)CCC4C3CC[C@@]21CC (some centres unmarked) [EC626], which “Rat Anti-ovulatory Activity Days +/− 2” value is on record?
Answer: The value was 20 days.

Question: With C#C[C@]1(OC(=O)/C=C/c2ccccc2)CCC2C3CCC4=CC(=O)CCC4C3CC[C@@]21CC (some centres unmarked) [EC627] as the molecule, how does the “Rat Anti-ovulatory Activity Days +/− 2” value read?
Answer: The value was 6 days.

Question: With C#C[C@]1(OC(=O)COc2cccc(C)c2)CCC2C3CCC4=CC(=O)CCC4C3CC[C@@]21CC (some centres unmarked) [EC628] as the molecule, how does the “Rat Anti-ovulatory Activity Days +/− 2” value read?
Answer: The value was 36 days.

Question: Which “Rat Anti-ovulatory Activity Days +/− 2” value does the source give for C#C[C@]1(OC(=O)COc2ccc(C)cc2)CCC2C3CCC4=CC(=O)CCC4C3CC[C@@]21CC (some centres unmarked) [EC629] here?
Answer: The value was 44.8 days.

Question: For C#C[C@]1(OC(=O)COc2cccc(Cl)c2)CCC2C3CCC4=CC(=O)CCC4C3CC[C@@]21CC (some centres unmarked) [EC630], which “Rat Anti-ovulatory Activity Days +/− 2” value is on record?
Answer: Its value is 46.5 days.

Question: With CC(=O)O[C@]1(C(C)=O)CC[C@H]2[C@@H]3C[C@H](C)C4=CC(=O)CC[C@]4(C)[C@H]3CC[C@@]21C [MPA, medroxyprogesterone acetate, reference compound] as the molecule, how does the “Rat Anti-ovulatory Activity Days +/− 2” value read?
Answer: The value was 40 days.

Tested on: not given
Assay: not given
Conditions: 3 month injectable product Depo Provera; cited from earlier work

Question: For CC(=O)O[C@]1(C(C)=O)CC[C@H]2[C@@H]3C[C@H](C)C4=CC(=O)CC[C@]4(C)[C@H]3CC[C@@]21C [MPA, medroxyprogesterone acetate, reference compound], which undesirable effects is on record?
Answer: Its undesirable effects is “increase of insulin levels, reduction of bone mass density, weight gain and enhanced risks for HIV infections”.
